These results are taken from patent US20250136578A1 (Kolm Therapeutics Inc., priority 2023, published 2025).

As a reminder, the IC50 is the concentration at which inhibition is half-maximal.

Read-outs that look alike come from different tables or passages of the source.

For one test, the target named is AR / CBP ternary complex (Homo sapiens, UniProt P10275+Q92793). As to the kind of experiment: Ternary complex formation assay (sandwich ELISA, AR capture, CBP antibody detection) in VCaP cell lysates. It counts as cell-based. The method, boiled down:
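Sandwich ELISA: plates were coated with anti-AR antibody (AR441) and given lysates of VCaP cells treated 1.5 h with bifunctional compound in charcoal-stripped serum. Co-captured CBP or p300 was probed with rabbit mAbs and HRP secondary. Chemifluorescent signal (ex 570/em 585) was read at 0, 5 and 15 min.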
On the technique in general: In an ELISA, binding on a coated surface is turned into a signal by an enzyme label.

For another test, the system named is VCaP cells. As to the kind of experiment: VCaP growth inhibition assay (CTG). It counts as cell-based. Particulars: Homo sapiens, 216 h, 30 pM R1881, 9 days. A digest of the protocol:
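Growth was measured by CTG luminescence after a 9-day exposure of VCaP cells to compound (final 10 fM–100 nM, fivefold steps) in the presence of 30 pM final R1881, in phenol red-free DMEM/5% CSS. IC50 values were derived by nonlinear 4-parameter regression of RLU against concentration.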

Where [1] appears, read: treated 1.5 hours, rabbit CBP or p300 antibody detection, average, read-out: Average Ternary Complex.

Sequence of AR / CBP ternary complex (P10275 whole entry): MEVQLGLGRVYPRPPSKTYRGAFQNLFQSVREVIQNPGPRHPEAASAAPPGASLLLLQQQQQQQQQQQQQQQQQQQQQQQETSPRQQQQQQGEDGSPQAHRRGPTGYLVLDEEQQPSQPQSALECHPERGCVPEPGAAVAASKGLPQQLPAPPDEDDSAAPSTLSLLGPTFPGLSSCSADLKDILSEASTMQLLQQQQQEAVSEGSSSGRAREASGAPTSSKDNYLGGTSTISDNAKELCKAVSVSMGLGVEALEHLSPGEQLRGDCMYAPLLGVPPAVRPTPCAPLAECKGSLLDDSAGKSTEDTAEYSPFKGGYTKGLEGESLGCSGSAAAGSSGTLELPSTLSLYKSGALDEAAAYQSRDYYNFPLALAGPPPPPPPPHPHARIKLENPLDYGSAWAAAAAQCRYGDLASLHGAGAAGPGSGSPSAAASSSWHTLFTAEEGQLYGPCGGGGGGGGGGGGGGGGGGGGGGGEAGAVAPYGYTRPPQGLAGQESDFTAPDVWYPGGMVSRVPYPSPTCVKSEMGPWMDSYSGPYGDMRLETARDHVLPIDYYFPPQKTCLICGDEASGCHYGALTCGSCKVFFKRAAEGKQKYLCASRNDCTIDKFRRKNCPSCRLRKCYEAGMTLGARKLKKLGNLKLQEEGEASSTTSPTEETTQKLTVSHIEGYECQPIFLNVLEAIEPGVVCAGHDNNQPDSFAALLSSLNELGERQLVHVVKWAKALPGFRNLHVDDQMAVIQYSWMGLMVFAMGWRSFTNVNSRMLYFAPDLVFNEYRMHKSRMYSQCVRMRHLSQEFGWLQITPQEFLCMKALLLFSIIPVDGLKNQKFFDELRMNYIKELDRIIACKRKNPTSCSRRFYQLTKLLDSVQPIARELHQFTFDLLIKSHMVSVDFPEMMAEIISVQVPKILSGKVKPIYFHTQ
Sequence of AR / CBP ternary complex (Q92793 2-2442): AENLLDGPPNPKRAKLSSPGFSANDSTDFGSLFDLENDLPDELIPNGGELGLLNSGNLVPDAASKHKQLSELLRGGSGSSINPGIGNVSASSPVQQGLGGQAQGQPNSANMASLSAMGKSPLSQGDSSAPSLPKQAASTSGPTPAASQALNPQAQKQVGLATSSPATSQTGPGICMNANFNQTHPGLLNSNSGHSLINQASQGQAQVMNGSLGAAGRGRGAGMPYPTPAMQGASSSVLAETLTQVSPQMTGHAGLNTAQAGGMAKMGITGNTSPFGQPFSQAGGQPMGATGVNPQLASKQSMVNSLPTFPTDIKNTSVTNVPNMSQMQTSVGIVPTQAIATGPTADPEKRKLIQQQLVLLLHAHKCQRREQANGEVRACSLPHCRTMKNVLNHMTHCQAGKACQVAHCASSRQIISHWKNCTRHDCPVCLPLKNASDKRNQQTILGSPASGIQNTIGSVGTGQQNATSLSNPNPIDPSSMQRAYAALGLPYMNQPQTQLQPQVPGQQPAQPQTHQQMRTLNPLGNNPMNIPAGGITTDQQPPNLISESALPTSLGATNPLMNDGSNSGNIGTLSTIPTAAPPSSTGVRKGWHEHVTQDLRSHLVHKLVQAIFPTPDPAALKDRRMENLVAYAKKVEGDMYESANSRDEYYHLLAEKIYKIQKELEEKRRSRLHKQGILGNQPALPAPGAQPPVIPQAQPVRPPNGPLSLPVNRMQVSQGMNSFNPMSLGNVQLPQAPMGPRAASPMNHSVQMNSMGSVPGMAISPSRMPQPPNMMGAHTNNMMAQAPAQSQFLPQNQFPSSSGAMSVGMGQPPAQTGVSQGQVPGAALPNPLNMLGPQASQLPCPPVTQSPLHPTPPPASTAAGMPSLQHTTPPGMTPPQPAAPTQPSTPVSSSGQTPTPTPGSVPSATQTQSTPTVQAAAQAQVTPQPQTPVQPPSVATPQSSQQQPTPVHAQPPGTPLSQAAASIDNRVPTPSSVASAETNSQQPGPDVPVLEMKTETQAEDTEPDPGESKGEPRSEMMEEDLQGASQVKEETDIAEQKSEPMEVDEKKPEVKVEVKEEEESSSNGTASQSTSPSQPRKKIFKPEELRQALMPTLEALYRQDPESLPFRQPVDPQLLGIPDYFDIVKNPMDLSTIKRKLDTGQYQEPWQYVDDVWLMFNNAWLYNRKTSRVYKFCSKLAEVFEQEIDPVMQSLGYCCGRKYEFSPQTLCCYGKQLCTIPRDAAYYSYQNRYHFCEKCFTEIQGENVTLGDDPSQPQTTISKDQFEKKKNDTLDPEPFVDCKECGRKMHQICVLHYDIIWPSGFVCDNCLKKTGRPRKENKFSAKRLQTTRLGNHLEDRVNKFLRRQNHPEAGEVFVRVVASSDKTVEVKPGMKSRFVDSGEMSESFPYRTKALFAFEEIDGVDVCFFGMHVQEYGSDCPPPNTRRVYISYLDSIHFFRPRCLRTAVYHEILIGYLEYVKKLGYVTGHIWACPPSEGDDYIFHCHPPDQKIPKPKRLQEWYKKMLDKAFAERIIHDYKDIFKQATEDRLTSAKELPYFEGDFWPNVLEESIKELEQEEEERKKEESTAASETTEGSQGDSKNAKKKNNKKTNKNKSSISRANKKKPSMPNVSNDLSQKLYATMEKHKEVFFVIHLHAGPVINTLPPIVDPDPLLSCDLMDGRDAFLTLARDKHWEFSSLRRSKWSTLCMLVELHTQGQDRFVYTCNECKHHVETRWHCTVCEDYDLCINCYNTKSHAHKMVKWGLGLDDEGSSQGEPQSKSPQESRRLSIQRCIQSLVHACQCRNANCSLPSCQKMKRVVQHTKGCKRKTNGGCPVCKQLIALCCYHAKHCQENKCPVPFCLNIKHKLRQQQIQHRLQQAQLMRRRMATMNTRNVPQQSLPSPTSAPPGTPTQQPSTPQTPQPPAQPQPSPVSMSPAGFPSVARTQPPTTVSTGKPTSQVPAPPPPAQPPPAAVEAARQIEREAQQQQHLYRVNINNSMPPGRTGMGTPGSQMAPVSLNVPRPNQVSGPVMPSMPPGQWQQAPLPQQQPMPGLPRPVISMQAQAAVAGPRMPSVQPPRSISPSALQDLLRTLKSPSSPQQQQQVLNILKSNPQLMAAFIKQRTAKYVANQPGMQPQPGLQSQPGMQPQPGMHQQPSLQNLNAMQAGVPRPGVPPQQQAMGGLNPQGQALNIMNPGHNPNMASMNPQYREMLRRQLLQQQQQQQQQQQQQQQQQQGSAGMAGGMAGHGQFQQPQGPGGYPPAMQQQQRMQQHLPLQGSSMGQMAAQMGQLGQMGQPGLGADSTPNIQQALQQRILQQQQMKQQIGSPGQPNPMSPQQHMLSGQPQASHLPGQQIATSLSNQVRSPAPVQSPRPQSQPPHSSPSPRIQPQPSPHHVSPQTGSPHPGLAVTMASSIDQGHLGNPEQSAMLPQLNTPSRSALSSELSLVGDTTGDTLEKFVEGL

Take `CC(=O)N1CCc2c(c(N3CCCc4cc(-c5cnn(C)c5)c(C(F)F)cc43)nn2C2CCN(C3CN(c4ccc(C(=O)N[C@H]5CC[C@H](Oc6ccc(C#N)c(Cl)c6)CC5)nn4)C3)CC2)C1` [Compound 206, 6-[3-[4-[5-acetyl-3-[7-(difluoromethyl)-6-(1-methylpyrazol-4-yl)-3,4-dihydro-2H-quinolin-1-yl]-6,7-dihydro-4H-pyrazolo[4,3-c]pyridin-1-yl]-1-piperidyl]azetidin-1-yl]-N-[4-(3-chloro-4-cyano-phenoxy)cyclohexyl]pyridazine-3-carboxamide]: at AR / CBP ternary complex (setting [1]), the EC50 was less than 1 nM. Besides, the IC50 in the test with VCaP cells is no more than 0.1 nM.

Take `CC(=O)N1CCc2c(c(N3CCCc4cc(-c5cnn(C)c5)c(C(F)F)cc43)nn2C2CCC3(CC2)CC(N2CCN(c4ccc(C(=O)N[C@H]5CC[C@H](Oc6ccc(C#N)c(Cl)c6)CC5)nn4)CC2)C3)C1` (stereo partly shown) [Compound 208, 6-[4-[7-[5-acetyl-3-[7-(difluoromethyl)-6-(1-methylpyrazol-4-yl)-3,4-dihydro-2H-quinolin-1-yl]-6,7-dihydro-4H-pyrazolo[4,3-c]pyridin-1-yl]spiro[3.5]nonan-2-yl]piperazin-1-yl]-N-[4-(3-chloro-4-cyano-phenoxy)cyclohexyl]pyridazine-3-carboxamide]: the EC50 on AR / CBP ternary complex (read-out: Average Ternary Complex, treated 1.5 hours, rabbit CBP or p300 antibody detection) is less than 1 nM. In the test with VCaP cells, this compound returned an IC50 of no more than 0.1 nM.

Consider `CC(=O)N1CCc2c(c(N3CCCc4cc(-c5cnn(C)c5)c(C(F)F)cc43)nn2[C@H]2CC[C@H](CN3CCN(c4ccc(C(=O)N[C@H]5CC[C@H](Oc6ccc(C#N)c(Cl)c6)CC5)nn4)CC3)CC2)C1` [Compound 209, 6-[4-[[4-[5-acetyl-3-[7-(difluoromethyl)-6-(1-methylpyrazol-4-yl)-3,4-dihydro-2H-quinolin-1-yl]-6,7-dihydro-4H-pyrazolo[4,3-c]pyridin-1-yl]cyclohexyl]methyl]piperazin-1-yl]-N-[4-(3-chloro-4-cyano-phenoxy)cyclohexyl]pyridazine-3-carboxamide], for which, on AR / CBP ternary complex (setting [1]), the EC50 was less than 1 nM. In the test with VCaP cells, the IC50 is no more than 0.1 nM.

Regarding `CC(=O)N1CCc2c(c(N3CCCc4cc(-c5cnn(C)c5)c(C(F)F)cc43)nn2[C@H]2CC[C@@H](CN3CCN(c4ccc(C(=O)N[C@H]5CC[C@H](Oc6ccc(C#N)c(Cl)c6)CC5)nn4)CC3)CC2)C1` [Compound 210, 6-[4-[[4-[5-acetyl-3-[7-(difluoromethyl)-6-(1-methylpyrazol-4-yl)-3,4-dihydro-2H-quinolin-1-yl]-6,7-dihydro-4H-pyrazolo[4,3-c]pyridin-1-yl]cyclohexyl]methyl]piperazin-1-yl]-N-[4-(3-chloro-4-cyano-phenoxy)cyclohexyl]pyridazine-3-carboxamide], the EC50 on AR / CBP ternary complex (setting [1]) is less than 1 nM. The compound also had an IC50 in the test on VCaP cells of no more than 0.1 nM.

`CC(=O)N1CCc2c(c(N3CCCc4cc(-c5ccc(N6CC(N7CCN(c8ccc(C(=O)N[C@H]9CC[C@H](Oc%10ccc(C#N)c(Cl)c%10)CC9)nn8)CC7)C6)nc5)c(C(F)F)cc43)nn2C2CCOCC2)C1` [Compound 216]: the EC50 on AR / CBP ternary complex (setting [1]) is less than 1 nM. Moreover, the IC50 in the test with VCaP cells was no more than 0.1 nM.

As to `CC(=O)N1CCc2c(c(N3CCCc4cc(-c5cnn(C)c5)c(C(F)F)cc43)nn2C2CCN(CC3C(C)CN(c4ccc(C(=O)N[C@H]5CC[C@H](Oc6ccc(C#N)c(Cl)c6)CC5)nn4)CC3C)CC2)C1` (stereo partly shown) [Compound 217, 6-[4-[[4-[5-acetyl-3-[7-(difluoromethyl)-6-(1-methylpyrazol-4-yl)-3,4-dihydro-2H-quinolin-1-yl]-6,7-dihydro-4H-pyrazolo[4,3-c]pyridin-1-yl]-1-piperidyl]methyl]-3,5-dimethyl-1-piperidyl]-N-[4-(3-chloro-4-cyano-phenoxy)cyclohexyl]pyridazine-3-carboxamide], the EC50 at AR / CBP ternary complex (setting [1]) is less than 1 nM. The same compound gave an IC50 in the test with VCaP cells of no more than 0.1 nM.

In the case of `CO[C@@H]1CN(c2ccc(C(=O)N[C@H]3CC[C@H](Oc4ccc(C#N)c(Cl)c4)CC3)nn2)CC[C@@H]1CN1CCC(n2nc(N3CCCc4cc(-c5cnn(C)c5)c(C(F)F)cc43)c3c2CCN(C(C)=O)C3)CC1` [Compound 219, 6-[4-[[4-[5-acetyl-3-[7-(difluoromethyl)-6-(1-methylpyrazol-4-yl)-3,4-dihydro-2H-quinolin-1-yl]-6,7-dihydro-4H-pyrazolo[4,3-c]pyridin-1-yl]-1-piperidyl]methyl]-3-methoxy-1-piperidyl]-N-[4-(3-chloro-4-cyano-phenoxy)cyclohexyl] pyridazine-3-carboxamide], the EC50 on AR / CBP ternary complex (setting [1]) was less than 1 nM. The same compound had a half-maximal inhibitory concentration (IC50) in the test on VCaP cells of no more than 0.1 nM.

With `CC(=O)N1CCc2c(c(N3CCCc4cc(-c5cnn(C)c5)c(C(F)F)cc43)nn2C2CCN([C@H]3CCN(c4ccc(C(=O)N[C@H]5CC[C@H](Oc6ccc(C#N)c(Cl)c6)CC5)nn4)C3)CC2)C1` [Compound 221, 6-[(3S)-3-[4-[5-acetyl-3-[7-(difluoromethyl)-6-(1-methylpyrazol-4-yl)-3,4-dihydro-2H-quinolin-1-yl]-6,7-dihydro-4H-pyrazolo[4,3-c]pyridin-1-yl]-1-piperidyl]pyrrolidin-1-yl]-N-[4-(3-chloro-4-cyano-phenoxy)cyclohexyl]pyridazine-3-carboxamide], the EC50 on AR / CBP ternary complex (setting [1]) is greater than 100 nM. The IC50 with VCaP cells lay in the range of 1 to 100 nM.

For `CC(=O)N1CCc2c(c(N3CCCc4cc(-c5cnn(C)c5)c(C(F)F)cc43)nn2C2CCN([C@@H]3CCN(c4ccc(C(=O)N[C@H]5CC[C@H](Oc6ccc(C#N)c(Cl)c6)CC5)nn4)C3)CC2)C1` [Compound 222, 6-[(3R)-3-[4-[5-acetyl-3-[7-(difluoromethyl)-6-(1-methylpyrazol-4-yl)-3,4-dihydro-2H-quinolin-1-yl]-6,7-dihydro-4H-pyrazolo[4,3-c]pyridin-1-yl]-1-piperidyl]pyrrolidin-1-yl]-N-[4-(3-chloro-4-cyano-phenoxy)cyclohexyl] pyridazine-3-carboxamide], the EC50 on AR / CBP ternary complex (setting [1]) was less than 1 nM. For the same compound, in the test on VCaP cells, the IC50 lay in the range of 0.1 to 1 nM.

With `CC(=O)N1CCc2c(c(N3CCCc4cc(-c5cnn(C)c5)c(C(F)F)cc43)nn2[C@H]2CC[C@@H](OC3CN(c4ccc(C(=O)N[C@H]5CC[C@H](Oc6ccc(C#N)c(Cl)c6)CC5)nn4)C3)CC2)C1` [Compound 223, 6-[3-[4-[5-acetyl-3-[7-(difluoromethyl)-6-(1-methylpyrazol-4-yl)-3,4-dihydro-2H-quinolin-1-yl]-6,7-dihydro-4H-pyrazolo[4,3-c]pyridin-1-yl]cyclohexoxy]azetidin-1-yl]-N-[4-(3-chloro-4-cyano-phenoxy)cyclohexyl]pyridazine-3-carboxamide], the EC50 on AR / CBP ternary complex (setting [1]) is less than 1 nM. In the test with VCaP cells, this compound showed an IC50 of no more than 0.1 nM.

For `CC(=O)N1CCc2c(c(N3CCCc4cc(-c5cnn(C)c5)c(C(F)F)cc43)nn2[C@H]2CC[C@H](OC3CN(c4ccc(C(=O)N[C@H]5CC[C@H](Oc6ccc(C#N)c(Cl)c6)CC5)nn4)C3)CC2)C1` [Compound 224, 6-[3-[4-[5-acetyl-3-[7-(difluoromethyl)-6-(1-methylpyrazol-4-yl)-3,4-dihydro-2H-quinolin-1-yl]-6,7-dihydro-4H-pyrazolo[4,3-c]pyridin-1-yl]cyclohexoxy]azetidin-1-yl]-N-[4-(3-chloro-4-cyanophenoxy)cyclohexyl]pyridazine-3-carboxamide], the EC50 on AR / CBP ternary complex (setting [1]) was less than 1 nM. In the test with VCaP cells, this compound gave an IC50 of no more than 0.1 nM.
